Results reported in patent publication US20250170090A1, “METHOD FOR PREVENTING OR TREATING DISEASE OR DISORDER ASSOCIATED WITH ANTINEOPLASTIC AGENT” (ONQUALITY PHARMACEUTICALS CHINA LTD., priority 2022, published 2025).
Where two headings read alike, the source gives them in different places.

What was measured:
[1] = system: hand-foot syndrome induced by anti-tumor agents; assay: Prevention of hand-foot syndrome induced by anti-tumor agents in rats, NO-NSAID ointment on hind paws (Table 2-2); type: in vivo, SD rats; conditions: Rattus norvegicus, topical, read-out: Control rate; for responders at 1 %: ointment 1% wt; for responders at 3 %: ointment 3% wt
Method in brief: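 Female SD rats (8 weeks, ~200 g; 10/group) received anti-tumour agents by daily oral gavage in Cremophor EL:ethanol 1:1 diluted ~3× with PBS. NO-NSAID or blank ointment was applied to hind paws once daily, 4 h restrained, then wiped off. Control rate = blank-group minus treated-group hand-foot syndrome incidence.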

[2] = system: HUVEC cells; assay: CCK-8 cell viability: alleviation of proliferative toxicity of anti-tumor agents on HUVEC cells (Tables 7-1, 7-2); type: cell-based; conditions: for activation at 100 µM: Homo sapiens, 24 h, percentage increase in viable cells vs anti-tumor agent alone, read-out: Response rate % (average)
Method in brief: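 Viability was measured by CCK-8 after 24-48 h of culture. Cells received anti-tumor agent in DMSO with or without co-added NO-NSAID (dissolved in ethanol or sterile water), and results were corrected against the matching NO-NSAID solvent control.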

[3] = 120 h, Sorafenib 80 mg/kg once a day, Days 5
[4] = 432 h, Regorafenib 90 mg/kg once a day, Days 18
[5] = Afatinib (10 μM), NO-NSAID 100 μM
[6] = Cabozantinib (5 μM), NO-NSAID 100 μM
[7] = Dabrafenib (10 μM), NO-NSAID 100 μM
[8] = Everolimus (5 μM), NO-NSAID 100 μM
[9] = Infigratinib (15 μM), NO-NSAID 100 μM
[10] = Lapatinib (5 μM), NO-NSAID 100 μM
[11] = Lenvatinib (10 μM), NO-NSAID 100 μM
[12] = Olmutinib (10 μM), NO-NSAID 100 μM
[13] = Regorafenib (5 μM), NO-NSAID 100 μM
[14] = Selumetinib (5 μM), NO-NSAID 100 μM
[15] = Sorafenib (5 μM), NO-NSAID 100 μM
[16] = Sunitinib (5 μM), NO-NSAID 100 μM

## CC(=O)Oc1ccccc1C(=O)OCOC(=O)CCCCCO[N+](=O)[O-] [Compound A3]
[1]; [3]
  responders at 1 %: 50%
  responders at 3 %: 57.1%
[1]; [4]
  responders at 1 %: 42.9%
  responders at 3 %: 71.4%
[2]; Afatinib (10 μM), NO-NSAID 0.1 μM
  NO-NSAID response rate % (average): 15%
[2]; Afatinib (10 μM), NO-NSAID 1 μM
  NO-NSAID response rate % (average): 24%
[2]; [5]
  NO-NSAID response rate % (average): 32%
  activation at 100 µM: 32%
[2]; Afatinib (10 μM), NO-NSAID 500 μM
  NO-NSAID response rate % (average): 22%
[2]; Cabozantinib (5 μM), NO-NSAID 0.1 μM
  NO-NSAID response rate % (average): 14%
[2]; Cabozantinib (5 μM), NO-NSAID 1 μM
  NO-NSAID response rate % (average): 29%
[2]; [6]
  NO-NSAID response rate % (average): 56%
  activation at 100 µM: 56%
[2]; Cabozantinib (5 μM), NO-NSAID 500 μM
  NO-NSAID response rate % (average): 24%
[2]; Dabrafenib (10 μM), NO-NSAID 0.1 μM
  NO-NSAID response rate % (average): 25%
[2]; Dabrafenib (10 μM), NO-NSAID 1 μM
  NO-NSAID response rate % (average): 30%
[2]; [7]
  NO-NSAID response rate % (average): 64%
  activation at 100 µM: 64%
[2]; Dabrafenib (10 μM), NO-NSAID 500 μM
  NO-NSAID response rate % (average): 33%
[2]; Everolimus (5 μM), NO-NSAID 0.1 μM
  NO-NSAID response rate % (average): −8%
[2]; Everolimus (5 μM), NO-NSAID 1 μM
  NO-NSAID response rate % (average): −8%
[2]; [8]
  NO-NSAID response rate % (average): 56%
  activation at 100 µM: 56%
[2]; Everolimus (5 μM), NO-NSAID 500 μM
  NO-NSAID response rate % (average): 1%
[2]; Anlotinib (5 μM), NO-NSAID 100 μM
  activation at 100 µM: 73%
[2]; Apatinib (10 μM), NO-NSAID 100 μM
  activation at 100 µM: 15%
[2]; Axitinib (10 μM), NO-NSAID 100 μM
  activation at 100 µM: 35%
[2]; Dacomitinib (5 μM), NO-NSAID 100 μM
  activation at 100 µM: 32%
[2]; Encorafenib (5 μM), NO-NSAID 100 μM
  activation at 100 µM: 28%
[2]; Erdafitinib (10 μM), NO-NSAID 100 μM
  activation at 100 µM: 59%
[2]; Famitinib (5 μM), NO-NSAID 100 μM
  activation at 100 µM: 39%
[2]; Fruquintinib (10 μM), NO-NSAID 100 μM
  activation at 100 µM: 22%
[2]; Gefitinib (10 μM), NO-NSAID 100 μM
  activation at 100 µM: 26%
[2]; [9]
  activation at 100 µM: 28%
  NO-NSAID response rate % (average): 28%
[2]; [10]
  activation at 100 µM: 40%
  NO-NSAID response rate % (average): 40%
[2]; [11]
  activation at 100 µM: 69%
  NO-NSAID response rate % (average): 69%
[2]; [12]
  activation at 100 µM: 57%
  NO-NSAID response rate % (average): 57%
[2]; [13]
  activation at 100 µM: 55%
  NO-NSAID response rate % (average): 55%
[2]; [14]
  activation at 100 µM: 49%
  NO-NSAID response rate % (average): 49%
[2]; [15]
  activation at 100 µM: 3%
  NO-NSAID response rate % (average): 3%
[2]; [16]
  activation at 100 µM: 50%
  NO-NSAID response rate % (average): 50%
[2]; Vemurafenib (5 μM), NO-NSAID 100 μM
  activation at 100 µM: 80%
[2]; Infigratinib (15 μM), NO-NSAID 0.1 μM
  NO-NSAID response rate % (average): 18%
[2]; Infigratinib (15 μM), NO-NSAID 1 μM
  NO-NSAID response rate % (average): 28%
[2]; Infigratinib (15 μM), NO-NSAID 500 μM
  NO-NSAID response rate % (average): 20%
[2]; Lapatinib (5 μM), NO-NSAID 0.1 μM
  NO-NSAID response rate % (average): 20%
[2]; Lapatinib (5 μM), NO-NSAID 1 μM
  NO-NSAID response rate % (average): 20%
[2]; Lapatinib (5 μM), NO-NSAID 500 μM
  NO-NSAID response rate % (average): 19%
[2]; Lenvatinib (10 μM), NO-NSAID 0.1 μM
  NO-NSAID response rate % (average): 21%
[2]; Lenvatinib (10 μM), NO-NSAID 1 μM
  NO-NSAID response rate % (average): 14%
[2]; Lenvatinib (10 μM), NO-NSAID 500 μM
  NO-NSAID response rate % (average): 20%
[2]; Olmutinib (10 μM), NO-NSAID 0.1 μM
  NO-NSAID response rate % (average): 27%
[2]; Olmutinib (10 μM), NO-NSAID 1 μM
  NO-NSAID response rate % (average): 35%
[2]; Olmutinib (10 μM), NO-NSAID 500 μM
  NO-NSAID response rate % (average): 23%
[2]; Regorafenib (5 μM), NO-NSAID 0.1 μM
  NO-NSAID response rate % (average): 32%
[2]; Regorafenib (5 μM), NO-NSAID 1 μM
  NO-NSAID response rate % (average): 37%
[2]; Regorafenib (5 μM), NO-NSAID 500 μM
  NO-NSAID response rate % (average): 26%
[2]; Selumetinib (5 μM), NO-NSAID 0.1 μM
  NO-NSAID response rate % (average): 28%
[2]; Selumetinib (5 μM), NO-NSAID 1 μM
  NO-NSAID response rate % (average): 53%
[2]; Selumetinib (5 μM), NO-NSAID 500 μM
  NO-NSAID response rate % (average): 34%
[2]; Sorafenib (5 μM), NO-NSAID 0.1 μM
  NO-NSAID response rate % (average): 13%
[2]; Sorafenib (5 μM), NO-NSAID 1 μM
  NO-NSAID response rate % (average): 7%
[2]; Sorafenib (5 μM), NO-NSAID 500 μM
  NO-NSAID response rate % (average): 29%
[2]; Sunitinib (5 μM), NO-NSAID 0.1 μM
  NO-NSAID response rate % (average): 10%
[2]; Sunitinib (5 μM), NO-NSAID 1 μM
  NO-NSAID response rate % (average): 37%
[2]; Sunitinib (5 μM), NO-NSAID 500 μM
  NO-NSAID response rate % (average): 7%
